From patent publication US12162867B2, “Inhibitors of RNA helicase DHX9 and uses thereof” (ACCENT THERAPEUTICS, INC., priority 2022, dated 2024)
Read-outs that look alike come from different tables or passages of the source.

Key:
Format in all cases: cell-based
NCI-H747 cells = test: DHX9 cellular proliferation assay (CellTiter-Glo), NCI-H747 (CRC-MSS); details: Homo sapiens
[1] = tested on: circBRIP1 in HCT116 cells; test: DHX9 circBRIP1 cellular target engagement TaqMan Multiplex assay (qPCR); details: Homo sapiens
LS411N cells = test: DHX9 cellular proliferation assay (CellTiter-Glo), LS411N (CRC-MSI); details: Homo sapiens, LS-411N, read-out: LS411N (CRC-MSI-H) Antiproliferative IC50
[2] = NCI-H747, NCI-H747, performed at Pharmaron, read-out: H747 (CRC-MSS) Antiproliferative IC50
[3] = HCT-116, circBRIP1, HCT116 cells, * Taqman assay was used, read-out: DHX9 Cellular Target Engagement EC50

Row | SMILES | IC50 (NCI-H747 cells; [2]) [nM] | EC50 [1, 3] [µM] | IC50 (LS411N cells; LS411N, performed at Pharmaron) [nM] | EC50 ([1]; HCT-116, circBRIP1, HCT116 cells, cell carries no mark, SyBr or Taqman not indicated, read-out: DHX9 Cellular Target Engagement EC50) [µM] | IC50 (NCI-H747 cells; NCI-H747, read-out: H747 (CRC-MSS) Antiproliferative IC50) [nM] | EC50 ([1]; HCT-116, read-out: DHX9 Cellular Target Engagement EC50 (μM)) [µM] | IC50 (LS411N cells) [nM]
1 | CCS(=O)(=O)Nc1cc(Cl)cc(NC(=O)c2cc(-c3ncc(N4CC(F)C4)cn3)c(C)s2)c1 [Example 509] | 5890 | 0.0177 | 73.1 |  |  |  | 
2 | Cc1sc(C(=O)Nc2cc(Cl)cc(NS(C)(=O)=O)c2)cc1-c1ncc(N2CC(F)(F)C2)cn1 [Example 510] | > 10000 | 0.0161 | 123 |  |  |  | 
3 | Cc1sc(C(=O)Nc2cc(Cl)cc(NS(C)(=O)=O)c2)cc1-c1ncc(N2CC3(C2)CC(F)(F)C3)cc1F [Example 511] | 7410 | 0.0372 | 149 |  |  |  | 
4 | Cc1sc(C(=O)Nc2cc(Cl)cc(NS(C)(=O)=O)c2)cc1-c1ncc(N2CCC3(COC3)C2)cc1F [Example 512] | 6720 | 0.0176 | 107 |  |  |  | 
5 | Cc1sc(C(=O)Nc2cc(Cl)cc(NS(C)(=O)=O)c2)cc1-c1ncc(N2CC(F)(F)C2)cc1OC1CCC1 [Example 514] | > 10000 | 0.0455 | 149 |  |  |  | 
6 | COC1CCN(c2ccc(-c3cc(C(=O)Nc4cc(Cl)cc(NS(C)(=O)=O)c4)cn3C)nc2)CC1 [Example 515, N-(3-chloro-5-methanesulfonamidophenyl)-5-[5-(4-methoxypiperidin-1-yl)pyridin-2-yl]-1-methyl-1H-pyrrole-3-carboxamide] | 8780 | 0.0216 | 89.3 |  |  |  | 
7 | Cn1cc(C(=O)Nc2cc(Cl)cc(NS(C)(=O)=O)c2)cc1-c1ncc(N2CCC3(CC2)CC3(F)F)cc1F [Example 518] | > 10000 | 0.0573 | 203 |  |  |  | 
8 | Cc1cc(C(=O)Nc2cc(Cl)cc(NS(C)(=O)=O)c2)cn1-c1ccc(N2CCC3(CC3)C2)cn1 [Example 522] | > 10000 | 0.109 | 211 |  |  |  | 
9 | Cc1cc(C(=O)Nc2cc(Cl)cc(NS(C)(=O)=O)c2)cn1-c1ccc(N2C3CCC2CC3)cn1 [Example 523] | 5950 | 0.0572 | 174 |  |  |  | 
10 | Cn1cc(C(=O)Nc2cc(Cl)cc(NS(C)(=O)=O)c2)cc1-c1ncc(N2CC(C(F)(F)F)C2)cc1F [Example 524, N-(3-chloro-5-methanesulfonamidophenyl)-5-{3-fluoro-5-[3-(trifluoromethyl)azetidin-1-yl]pyridin-2-yl}-1-methyl-1H-pyrrole-3-carboxamide] | 6290 | 0.0766 | 138 |  |  |  | 
11 | Cn1cc(C(=O)Nc2cc(Cl)cc(NS(C)(=O)=O)c2)cc1-c1ncc(N2CCC(F)(F)C2)cc1F [Example 525] | 1350 | 0.043 | 144 |  |  |  | 
12 | Cn1cc(C(=O)Nc2cc(Cl)cc(NS(C)(=O)=O)c2)cc1-c1ncc(N2CCC(F)(F)C2)cn1 [Example 526] | > 10000 | 0.0293 | 133 |  |  |  | 
13 | Cn1cc(C(=O)Nc2cc(Cl)cc(NS(C)(=O)=O)c2)cc1-c1ccc(N2CCC(F)(F)C2)cn1 [Example 527] | 5580 | 0.109 | 65.4 |  |  |  | 
14 | COc1cc(N2CC(F)(F)C2)cnc1-c1cc(C(=O)Nc2cc(Cl)cc(NS(=O)(=O)CCO)c2)sc1C [Example 528] | 6960 | 0.0723 | 1130 |  |  |  | 
15 | Cc1sc(C(=O)Nc2cc(Cl)cc(NS(C)(=O)=O)c2)cc1-c1ncc(N2CC(F)(F)C2)cc1F [Example 532, N-(3-chloro-5-methanesulfonamidophenyl)-4-[5-(3,3-difluoroazetidin-1-yl)-3-fluoropyridin-2-yl]-5-methylthiophene-2-carboxamide] | 4200 | 0.0301 | 100 |  |  |  | 
16 | Cc1sc(C(=O)Nc2cc(Cl)cc(NS(C)(=O)=O)c2)cc1-c1ccc(N2CC(F)(F)C2)cn1 [Example 533] | 4810 | 0.0145 | 73.9 |  |  |  | 
17 | Cc1sc(C(=O)Nc2cc(Cl)cc(NS(C)(=O)=O)c2)cc1-c1ncc(N2CC(F)(F)C2)cc1OC(C)C [Example 534] | > 10000 | 0.0876 | 55.4 |  |  |  | 

Row | SMILES | IC50 (NCI-H747 cells; [2]) [nM] | EC50 [1, 3] [µM] | IC50 (LS411N cells; LS411N, performed at Pharmaron) [nM] | EC50 ([1]; HCT-116, circBRIP1, HCT116 cells, cell carries no mark, SyBr or Taqman not indicated, read-out: DHX9 Cellular Target Engagement EC50) [µM] | IC50 (NCI-H747 cells; NCI-H747, read-out: H747 (CRC-MSS) Antiproliferative IC50) [nM] | EC50 ([1]; HCT-116, read-out: DHX9 Cellular Target Engagement EC50 (μM)) [µM] | IC50 (LS411N cells) [nM]
18 | COc1cc(N2CC(F)(F)C2)cnc1-c1cc(C(=O)Nc2cc(Cl)cc(NS(C)(=O)=O)c2)sc1C [Example 535] | > 10000 | 0.0047 | 93.3 |  |  |  | 
19 | Cc1sc(C(=O)Nc2cc(Cl)cc(NS(C)(=O)=O)c2)cc1-c1ncc(N2CC(F)(F)C2)cc1OC(F)F [Example 536] | 6800 | 0.049 | 70.4 |  |  |  | 
20 | Cc1cc(N2CC(F)(F)C2)cnc1-c1cc(C(=O)Nc2cc(Cl)cc(NS(C)(=O)=O)c2)sc1C [Example 537] | 6530 | 0.03 | 82.8 |  |  |  | 
21 | Cn1cc(C(=O)Nc2cc(Cl)cc(NS(C)(=O)=O)c2)cc1-c1ncc(F)cc1F [Example 540, N-(3-chloro-5-methanesulfonamidophenyl)-5-(3,5-difluoropyridin-2-yl)-1-methyl-1H-pyrrole-3-carboxamide] | 7910 |  | 175 | 0.0741 |  |  | 
22 | Cc1sc(C(=O)Nc2cc(Cl)cc(NS(C)(=O)=O)c2)cc1-c1ncc(OC(C)C)cn1 [Example 541, N-(3-chloro-5-(methylsulfonamido)phenyl)-4-(5-isopropoxypyrimidin-2-yl)-5-methylthiophene-2-carboxamide] |  |  |  |  | 6000 | 0.0377 | 49.8
23 | Cn1cc(C(=O)Nc2cc(Cl)cc(NS(C)(=O)=O)c2)cc1-c1ncc(F)cc1C#N [Example 546] | > 10000 | 0.109 | 1090 |  |  |  | 
24 | Cn1cc(C(=O)Nc2cc(Cl)cc(NS(C)(=O)=O)c2)cc1-c1c(F)cc(F)cc1F [Example 547] | 5430 | 0.127 | 173 |  |  |  | 
25 | CCS(=O)(=O)Nc1cc(Cl)cc(NC(=O)c2cc(-c3ncc(C)cc3F)n(C)c2)c1 [Example 548] | 6460 | 0.0804 | 226 |  |  |  | 
26 | COc1cnc(-c2cc(C(=O)Nc3cc(Cl)cc(NS(C)(=O)=O)c3)cn2C)nc1 [Example 549] | > 10000 | 0.0483 | 369 |  |  |  | 
27 | COc1cc(C(F)(F)F)cnc1-c1cc(C(=O)Nc2cc(Cl)cc(NS(C)(=O)=O)c2)sc1C [Example 550] | 3640 | 0.105 | 352 |  |  |  | 
28 | Cn1cc(C(=O)Nc2cc(Cl)cc(NS(C)(=O)=O)c2)cc1-c1cccc(N2CC(F)(F)C2)n1 [Example 551] | 3500 | 0.127 | 225 |  |  |  | 
29 | Cn1cc(C(=O)Nc2cc(Cl)cc(NS(C)(=O)=O)c2)cc1-c1ncc(OC(F)F)cn1 [Example 553] | > 10000 | 0.0716 | 211 |  |  |  | 
30 | Cn1cc(C(=O)Nc2cc(Cl)cc(NS(C)(=O)=O)c2)cc1-c1ccc(OC(C)(C)C)cn1 [Example 555] | 4470 | 0.0466 | 121 |  |  |  | 
31 | Cn1cc(C(=O)Nc2cc(Cl)cc(NS(C)(=O)=O)c2)cc1-c1ncc(OC(C)(C)C)cn1 [Example 556] | 4520 | 0.0545 | 74.9 |  |  |  | 
32 | Cn1cc(C(=O)Nc2cc(Cl)cc(NS(C)(=O)=O)c2)cc1-c1ncc(OC(C)(C)C)cc1F [Example 557] | 2300 | 0.0926 | 131 |  |  |  | 
33 | Cc1sc(C(=O)Nc2cc(Cl)cc(NS(C)(=O)=O)c2)cc1-c1ncc(OC(C)(C)C)cn1 [Example 559] | 3370 | 0.0425 | 74 |  |  |  | 
34 | CS(=O)(=O)Nc1cc(Cl)cc(NC(=O)c2c[nH]c(-c3ncc(F)cc3F)c2)c1 [Example 560] | > 10000 | 0.148 | 145 |  |  |  | 
